Patent US8637237B2, “Methods, compositions, and systems for the identification of species-specific or developmental stage-specific insecticides” (The University of North Carolina at Greensboro, priority 2003, dated 2014)
pEC50, pIC50: −log10 of the molar value. One block for each compound: values may come before it.

Biological target: T1, FXR (Rattus norvegicus, UniProt Q62735)
T1 sequence (Q62735 1-469): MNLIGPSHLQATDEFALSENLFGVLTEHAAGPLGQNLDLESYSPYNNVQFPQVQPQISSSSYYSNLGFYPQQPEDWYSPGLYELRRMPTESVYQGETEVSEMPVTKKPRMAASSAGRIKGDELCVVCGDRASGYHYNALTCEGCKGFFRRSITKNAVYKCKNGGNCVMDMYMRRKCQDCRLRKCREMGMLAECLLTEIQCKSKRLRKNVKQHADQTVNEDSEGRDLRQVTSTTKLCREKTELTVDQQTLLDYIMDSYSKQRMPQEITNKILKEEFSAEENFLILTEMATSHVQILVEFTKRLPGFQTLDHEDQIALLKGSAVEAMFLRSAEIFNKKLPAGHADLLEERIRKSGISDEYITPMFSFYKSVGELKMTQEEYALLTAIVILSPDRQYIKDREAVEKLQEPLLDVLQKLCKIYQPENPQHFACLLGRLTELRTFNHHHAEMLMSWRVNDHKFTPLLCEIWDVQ
T1 sequence (P28700 1-467 partner): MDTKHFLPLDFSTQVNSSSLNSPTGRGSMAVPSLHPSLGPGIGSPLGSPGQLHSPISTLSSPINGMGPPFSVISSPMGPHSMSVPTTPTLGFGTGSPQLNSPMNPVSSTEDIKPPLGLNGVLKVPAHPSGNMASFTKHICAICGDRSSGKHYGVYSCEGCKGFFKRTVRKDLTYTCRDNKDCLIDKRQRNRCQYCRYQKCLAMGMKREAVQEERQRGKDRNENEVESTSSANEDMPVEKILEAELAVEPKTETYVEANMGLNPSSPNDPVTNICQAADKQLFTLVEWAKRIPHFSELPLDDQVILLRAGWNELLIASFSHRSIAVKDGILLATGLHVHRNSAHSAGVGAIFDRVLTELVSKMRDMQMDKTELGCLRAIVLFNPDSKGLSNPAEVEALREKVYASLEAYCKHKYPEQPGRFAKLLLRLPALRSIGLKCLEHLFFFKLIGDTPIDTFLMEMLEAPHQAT
Test: cell-based
Procedure: These experiments employed a mammalian cell culture system using Chinese hamster ovary cells (CHO) to evaluate the transcriptional function of Drosophila melanogaster EcR and USP using methods described previously (U.S. Patent Application Publication No: 2005/0049230; Henrich et al, 2003). Cells were seeded in 6-well polypropylene culture plates (Falcon) with 10^5 cells per well on the day prior to transfection. Transfection was subsequently performed using either calcium phosphate (Kitareewan et al., 1996, Mol. Biol. Cell, 7:1153-1196) or a GenePorter reagent (Gene Therapy Systems, Inc; San Diego, Calif.) following manufacturer's protocols. Each well received 1.25 μg of (EcRE)5-ΔMTV-CAT (five copies of the hsp27 EcRE inserted into an mouse mammary tumor virus (MTV) promoter upstream of the chloramphenicol acetyltransferase (CAT) gene) or (EcRE)5-ΔMTV-LUC (the same promoter attached to firefly luciferase), 1.25 μg of pCH111 (SV40 early promoter linked to the β-galactosidase gene) to normalize CAT activity, and 0.25 μg of each expression plasmid (EcR, FXR, RXR, USP) that was tested. The cells were incubated with plasmid DNA for seven hours and then washed with 1×PBS. Muristerone A (murA; Alexis Biochemicals) or 20-hydroxyecdysone (20E; Sigma) dissolved in ethanol to a concentration of 10 mM was diluted as necessary to the final assay concentration (FAC) in 2 ml of fresh incubation medium that was then applied to the cells. Similarly, JHIII (Sigma) was dissolved in dimethyl sulfoxide (DMSO) to a concentration of […] and diluted into the incubation medium to its final assay concentration (20, 40, 80, 160 μM). […] A corresponding volume of ethanol and DMSO were added to control cells for all experiments. For all experiments, the cells were allowed to incubate with the medium for 24 hours before collection and cell lysates were prepared by described methods (Kitareewan et al., 1996). Both β-galactosidase and CAT reporter activity were measured based on previously used methods (Kitareewan et al, 1996). Luciferase assays using luciferrin followed the specifications of the manufacturer.
Transcriptional activity, measured as ^14C-chloramphenicol counts (for measuring CAT activity) or relative luciferase activity (RLU) was quantified for each cell lysate. The counts were then normalized by adjusting for differences in β-galactosidase activity, since β-galactosidase expression is controlled by a constitutive promoter and provides an estimate of cell mass. Data were normalized as fold-induction based on differences in reporter gene activity between hormonally treated and control cells.
In these experiments, candidate juvenoids were tested for their ability to activate FXR mediated transcription by transfecting Chinese hamster ovary (CHO) cells using the FXR plasmid, mouse RXRα, and the ΔMTV-(EcRE)5-CAT reporter as described herein. An RXR-dependent CRBPII-CAT reporter plasmid was employed in parallel assays to discern activators specific for this receptor.

[1] = dose 20 μM, 1 = no increase over vehicle

SMILES: CC(C)(O)/C=C/C(=O)[C@](C)(O)[C@H]1[C@H](O)C[C@@]2(C)[C@@H]3CC=C4[C@@H](C=C(O)C(=O)C4(C)C)[C@]3(C)C(=O)C[C@]12C [cucurbitacin I]
- pIC50 (read-out: IC50, inhibition of farnesol-induced FXR activity, data not shown): ~7.30

- FXR-dependent activity, induction (dose not stated): ineffective
SMILES: COc1cc(/C=C/C(=O)CC(=O)/C=C/c2ccc(O)c(OC)c2)ccc1O [curcumin]

- FXR-dependent activity, induction (1 mM): 4 fold
SMILES: CCCC(=O)Nc1ncnc2c1ncn2[C@@H]1O[C@@H]2COP(=O)(O)O[C@H]2[C@H]1OC(=O)CCC [dibutyryl cAMP]

SMILES: C[C@H]([C@H](O)CCC(C)(C)O)[C@H]1CC[C@@]2(O)C3=CC(=O)[C@@H]4C[C@@H](O)[C@@H](O)C[C@]4(C)[C@H]3CC[C@]12C [ecdysone]
- FXR-dependent activity, induction (dose not stated): unresponsive

SMILES: C=CC(C)(O)CCCC/C=C(\C)CC(C)=O (stereo not shown) [echinolone]
- FXR-dependent activity, maximal induction (maximal (highest non-cytotoxic) dose): 7 fold

- FXR-dependent activity, induction (0.5 mM): inactive
SMILES: CC12CCC(C1)C(C)(C)C2=O (stereo not shown) [fenchone]

- FXR-dependent activity, induction (0.5 mM): 5 fold
SMILES: CC12CCC(C1)C(C)(C)C2O (stereo not shown) [fenchyl alcohol]

SMILES: N#Cc1nn(-c2c(Cl)cc(C(F)(F)F)cc2Cl)c(N)c1[S+]([O-])C(F)(F)F (stereo not shown) [fipronil]
- FXR-dependent activity, induction (25 μM): 20 fold

- FXR-dependent CAT activity, induction (50 μM): unresponsive
SMILES: O=c1c(-c2ccc(O)cc2)coc2cc(O)cc(O)c12 [genistein]

SMILES: O=c1c(O)c(-c2ccc(O)c(O)c2)oc2c(O)c(O)cc(O)c12 [gossypetin]
- FXR-dependent CAT activity, induction (50 μM): unresponsive

- FXR-dependent activity, induction (dose not stated): ineffective
SMILES: O=c1[nH]cnc2nc[nH]c12 [hypoxanthine]

SMILES: O=[N+]([O-])NC1=NCCN1Cc1ccc(Cl)nc1 [imidacloprid]
- FXR-dependent activity, induction (dose not stated): unaffected

SMILES: COP(=S)(OC)SCN1C(=O)c2ccccc2C1=O [imidan]
- FXR-dependent activity, induction (dose not stated): inactive

SMILES: CC1=C[C@]23C(=O)[C@@H](C=C(COC(=O)c4ccccc4)[C@@H](O)[C@]2(O)[C@H]1OC(=O)c1ccccc1)[C@H]1[C@@H](C[C@H]3C)C1(C)C [ingenol-3,20-dibenzoate]
- FXR-dependent activity, induction (10 μM): 5 fold
- FXR ACTIVITY (fold-induction) (dose 10 μM): 5 fold-induction

SMILES: CC1=C[C@]23C(=O)[C@@H](C=C(CO)[C@@H](O)[C@]2(O)[C@H]1O)[C@H]1[C@@H](C[C@H]3C)C1(C)C [ingenol]
- FXR-dependent activity, induction (dose not stated): inactive

- FXR-dependent activity, induction (1 mM): no effect
SMILES: CC/C=C\C[C@H]1C(=O)CC[C@@H]1CC(=O)O [jasmonic acid]

SMILES: COC(=O)C1=CC[C@H]([C@H](C)CC(=O)CC(C)C)CC1 [juvabione]
- RXR mediated transcription, increase (plant-derived JH agonists examined as FXR effectors): 3 fold

SMILES: C[C@@]12C=Cc3occc3[C@H]1CC[C@@]13C[C@@H](CC[C@H]12)[C@@](O)(CO)C3 [kahweol]
- FXR ACTIVITY (fold-induction) [1]: 10 fold-induction

SMILES: O=C1C2(Cl)C3(Cl)C4(Cl)C(Cl)(Cl)C5(Cl)C3(Cl)C1(Cl)C5(Cl)C24Cl (stereo not shown) [kepone]
- FXR-dependent CAT activity, induction (5 μM): 12 fold

SMILES: C=C(C)C1CCC2(C)OC2C1 (stereo not shown) [limonene oxide]
- FXR-dependent activity, induction (400 μM): inactive

SMILES: Cl[C@H]1[C@H](Cl)[C@@H](Cl)[C@@H](Cl)[C@H](Cl)[C@H]1Cl [lindane]
- FXR-dependent CAT activity, induction (5 μM): 5 fold

- FXR-dependent activity, induction (0.5 mM): inactive
SMILES: CC1CCC(C(C)C)C(O)C1 (stereo not shown) [menthol]

- FXR-dependent activity, induction (1 mM): 17 fold
- FXR ACTIVITY (fold-induction) (dose 1000 μM): 18 fold-induction
SMILES: CC/C=C\CC1C(=O)CCC1CC(=O)OC (stereo not shown) [methyl jasmonate]

SMILES: C=C(C)[C@@]12O[C@@]3(c4ccccc4)O[C@@H]1[C@@H]1[C@@H]4O[C@]4(CO)[C@@H](O)[C@]4(O)C(=O)C(C)=C[C@H]4[C@@]1(O3)[C@H](C)[C@H]2OC(=O)/C=C/C=C/c1ccccc1 [mezerein]
- FXR-dependent activity, induction (10 μM): 3 fold

SMILES: Clc1ccc(C(c2ccc(Cl)cc2)C(Cl)(Cl)Cl)cc1 [p,p-DDT]
- FXR-dependent CAT activity, induction (5 μM): not

- FXR ACTIVITY (fold-induction) (dose 300 μM, 1 = no increase over vehicle): 4 fold-induction
- FXR-dependent activity, induction (dose not stated): 4 fold
SMILES: C=C(C)[C@@H]1CC=C(CO)CC1 [perillyl alchol, perillyl alcohol]

- FXR-dependent activity, induction (400 μM): inert
SMILES: OCCc1ccccc1 [phenethyl alcohol]

SMILES: CC(C)=CC1C(C(=O)OCc2cccc(Oc3ccccc3)c2)C1(C)C (stereo not shown) [phenothrin]
- FXR-dependent activity, induction (25 μM): 8 fold

SMILES: CCCC(=O)O[C@@H]1[C@@H](C)[C@@]2(O)[C@@H](C=C(CO)C[C@]3(O)C(=O)C(C)=C[C@@H]23)[C@@H]2C(C)(C)[C@]12OC(=O)CCC [phorbol 12,13-dibutyrate]
- FXR-dependent activity, induction (10 μM): 2 fold

SMILES: CC1(C)[C@@H]2C[C@H]1[C@@](C)(O)[C@@H](O)C2 [pinane diol]
- FXR-dependent activity, induction (0.5 mM): 5 fold

SMILES: OCc1ccc2c(c1)OCO2 [piperonyl alcohol]
- FXR-dependent activity, induction (dose not stated): inactive

SMILES: O=C(O)c1ccc2c(c1)OCO2 [piperonylic acid]
- FXR-dependent activity, induction (dose not stated): inactive

- FXR-dependent activity, induction (dose not stated): 15 fold
- pEC50 (read-out: EC50 for FXR-dependent CAT activity): 3.82
SMILES: COc1cc2c(cc1OC)OC(C)(C)C=C2 [precocene II]

SMILES: CC(COc1ccc(Oc2ccccc2)cc1)Oc1ccccn1 (stereo not shown) [pyriproxyfen]
- FXR ACTIVITY (fold-induction) (final dose of 50 ∝M, 1 = induction less than 2-fold below cytotoxic doses): 9 fold-induction

SMILES: O=C(/C=C/c1ccc(O)c(O)c1)O[C@H](Cc1ccc(O)c(O)c1)C(=O)O [rosemarinic acid]
- FXR-dependent activity, induction (dose not stated): ineffective

SMILES: C=C(C)[C@H]1Cc2c(ccc3c2O[C@@H]2COc4cc(OC)c(OC)cc4[C@@H]2C3=O)O1 [rotenone]
- FXR ACTIVITY (fold-induction) [1]: 1 fold-induction
- FXR-dependent activity, induction (dose not stated): inactive

SMILES: COc1cc2c(cc1OC)[C@@H]1C(=O)c3ccc(O)c(CC=C(C)C)c3O[C@@H]1CO2 [rotenonic acid]
- FXR-dependent CAT activity, induction (20 μM): 20 fold
- FXR ACTIVITY (fold-induction) [1]: 20 fold-induction

- FXR-dependent CAT activity, induction (50 μM): 18 fold
- FXR ACTIVITY (fold-induction) (dose 100 μM, 1 = no increase over vehicle): 10 fold-induction
SMILES: COc1cc(C2Oc3cc([C@H]4Oc5cc(O)cc(O)c5C(=O)[C@@H]4O)ccc3OC2CO)ccc1O (stereo partly shown) [silybin]

- FXR-dependent CAT activity, induction (50 μM): 4 fold
SMILES: COc1ccc(-c2cc(=O)c3c(OC)c(OC)c(OC)c(OC)c3o2)cc1 [tangeretin]

- FXR-dependent CAT activity, induction (50 μM): unresponsive
SMILES: O=C1c2c(O)cc(O)cc2O[C@H](c2ccc(O)c(O)c2)[C@H]1O [taxifolin]

SMILES: Clc1cc2c(cc1Cl)Oc1cc(Cl)c(Cl)cc1O2 [tetrachloro- dibenzo-p- dioxin, 2,3,7,8-tetrachlorodibenzo-p-dioxin]
- FXR-dependent CAT activity, induction (100 nM): 15 fold
- FXR ACTIVITY (fold-induction) (dose 0.1 μM): 15 fold-induction

- FXR-dependent activity, induction (dose not stated): ineffective
SMILES: Cn1cnc2c1c(=O)[nH]c(=O)n2C [theobromine]

- FXR-dependent activity, induction (dose not stated): ineffective
SMILES: O=c1[nH]c(=O)c2[nH]cnc2[nH]1 [xanthine]

SMILES: CC(=O)/C=C/C1C(C)=CCCC1(C)C (stereo not drawn) [α-ionone]
- FXR ACTIVITY (fold-induction) (dose 150 μM): 10 fold-induction
